Measured values published in patent US9241954B2, “Lipopolysaccharide of ochrobactrum intermedium and their use as immunostimulant of mammalians” (LABORATORIOS OVEJERO, S.A., priority 2009, dated 2016).

Tests used:
[1] = system: severe sepsis patients; conditions: cited from earlier work
[2] = system: CD8 and CD4 T-cells (spleen cells)

CCOC(=O)C1=CCCC[C@H]1S(=O)(=O)Nc1ccc(F)cc1Cl [TAK-242]
proinflammatory cytokine levels ([1]; human, in vivo): decrease proinflammatory cytokine levels
mortality ([1]; severe sepsis patients (TAK-242: subgroup with high IL-6 levels)): decrease mortality

Lipopolysaccharide from Ochrobactrum intermedium strain LMG3306 [IM]
toxicity for CD8 and CD4 T-cells / spleen cells [2]: no toxic at all
